# Experiments:
# Experiment in all cases: Kinase panel study
# Type in all cases: biochemical
# Conditions in all cases: read-out: Percentage of inhibition; for inhibition at 1 µM: 1000nM; for inhibition at 10 µM: 10000nM
# AMPK (A2/B2/G3) = biological target: T1, AMPK (A2/B2/G3) (Homo sapiens, UniProt P54646)
# T1 construct: purchased Thermo Fisher Scientific
# How it was run: (§1)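 Percent inhibition of each kinase by the test compound, given at either 1 µM or 10 µM, came from a contracted panel run by ZLyte or Adapta protocol.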
# PIM1 = biological target: T2, PIM1 (Homo sapiens, UniProt P11309)
# T2 construct: purchased Thermo Fisher Scientific
# T2 sequence (P11309 whole entry): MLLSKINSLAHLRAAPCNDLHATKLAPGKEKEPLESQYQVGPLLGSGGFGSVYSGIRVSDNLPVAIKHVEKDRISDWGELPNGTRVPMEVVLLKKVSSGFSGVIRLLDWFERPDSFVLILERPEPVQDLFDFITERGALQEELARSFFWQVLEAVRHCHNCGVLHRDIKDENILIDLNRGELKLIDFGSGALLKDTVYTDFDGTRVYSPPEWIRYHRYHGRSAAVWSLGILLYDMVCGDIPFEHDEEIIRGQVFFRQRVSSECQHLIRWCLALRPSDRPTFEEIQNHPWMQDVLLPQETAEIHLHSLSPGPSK
# How it was run: as §1
# LRRK2 FL = biological target: T3, LRRK2 FL (Homo sapiens, UniProt Q5S007)
# T3 construct: LRRK2 FL; purchased Thermo Fisher Scientific
# How it was run: as §1
# PLK2 = biological target: T4, PLK2 (Homo sapiens, UniProt Q9NYY3)
# T4 construct: purchased Thermo Fisher Scientific
# How it was run: as §1
# MAPK7 (ERK5) = biological target: T5, MAPK7 (ERK5) (Homo sapiens, UniProt Q13164)
# T5 construct: purchased Thermo Fisher Scientific
# How it was run: as §1
# CDK4/cyclin D3 = biological target: T6, CDK4/cyclin D3 (Homo sapiens, UniProt P11802)
# T6 construct: purchased Thermo Fisher Scientific
# How it was run: as §1
# FGFR1 = biological target: T7, FGFR1 (Homo sapiens, UniProt P11362)
# T7 construct: purchased Thermo Fisher Scientific
# T7 sequence (P11362 22-822): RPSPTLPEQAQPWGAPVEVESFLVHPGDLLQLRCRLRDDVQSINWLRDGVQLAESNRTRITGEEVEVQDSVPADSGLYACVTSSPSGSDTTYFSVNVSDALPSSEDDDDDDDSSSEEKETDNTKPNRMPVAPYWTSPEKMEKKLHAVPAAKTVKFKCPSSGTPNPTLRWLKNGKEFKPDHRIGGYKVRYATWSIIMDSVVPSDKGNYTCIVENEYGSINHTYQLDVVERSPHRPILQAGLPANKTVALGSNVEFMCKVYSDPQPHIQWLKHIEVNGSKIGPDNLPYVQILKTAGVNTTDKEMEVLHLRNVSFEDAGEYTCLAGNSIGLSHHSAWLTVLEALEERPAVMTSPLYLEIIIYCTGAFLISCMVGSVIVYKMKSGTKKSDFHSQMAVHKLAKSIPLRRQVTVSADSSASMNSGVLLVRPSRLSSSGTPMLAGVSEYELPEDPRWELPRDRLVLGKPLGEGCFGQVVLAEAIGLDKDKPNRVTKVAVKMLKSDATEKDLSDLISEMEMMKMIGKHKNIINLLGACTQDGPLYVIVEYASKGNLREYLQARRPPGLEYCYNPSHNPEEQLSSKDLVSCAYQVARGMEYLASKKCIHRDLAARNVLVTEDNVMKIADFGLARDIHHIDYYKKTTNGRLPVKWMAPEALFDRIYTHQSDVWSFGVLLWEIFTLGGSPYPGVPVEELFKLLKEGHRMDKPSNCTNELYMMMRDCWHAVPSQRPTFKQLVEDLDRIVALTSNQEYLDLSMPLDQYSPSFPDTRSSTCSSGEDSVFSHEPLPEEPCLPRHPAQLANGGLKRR
# How it was run: as §1
# KSR2 = biological target: T8, KSR2 (Homo sapiens, UniProt Q6VAB6)
# T8 construct: purchased Thermo Fisher Scientific
# T8 sequence (Q6VAB6 1-950): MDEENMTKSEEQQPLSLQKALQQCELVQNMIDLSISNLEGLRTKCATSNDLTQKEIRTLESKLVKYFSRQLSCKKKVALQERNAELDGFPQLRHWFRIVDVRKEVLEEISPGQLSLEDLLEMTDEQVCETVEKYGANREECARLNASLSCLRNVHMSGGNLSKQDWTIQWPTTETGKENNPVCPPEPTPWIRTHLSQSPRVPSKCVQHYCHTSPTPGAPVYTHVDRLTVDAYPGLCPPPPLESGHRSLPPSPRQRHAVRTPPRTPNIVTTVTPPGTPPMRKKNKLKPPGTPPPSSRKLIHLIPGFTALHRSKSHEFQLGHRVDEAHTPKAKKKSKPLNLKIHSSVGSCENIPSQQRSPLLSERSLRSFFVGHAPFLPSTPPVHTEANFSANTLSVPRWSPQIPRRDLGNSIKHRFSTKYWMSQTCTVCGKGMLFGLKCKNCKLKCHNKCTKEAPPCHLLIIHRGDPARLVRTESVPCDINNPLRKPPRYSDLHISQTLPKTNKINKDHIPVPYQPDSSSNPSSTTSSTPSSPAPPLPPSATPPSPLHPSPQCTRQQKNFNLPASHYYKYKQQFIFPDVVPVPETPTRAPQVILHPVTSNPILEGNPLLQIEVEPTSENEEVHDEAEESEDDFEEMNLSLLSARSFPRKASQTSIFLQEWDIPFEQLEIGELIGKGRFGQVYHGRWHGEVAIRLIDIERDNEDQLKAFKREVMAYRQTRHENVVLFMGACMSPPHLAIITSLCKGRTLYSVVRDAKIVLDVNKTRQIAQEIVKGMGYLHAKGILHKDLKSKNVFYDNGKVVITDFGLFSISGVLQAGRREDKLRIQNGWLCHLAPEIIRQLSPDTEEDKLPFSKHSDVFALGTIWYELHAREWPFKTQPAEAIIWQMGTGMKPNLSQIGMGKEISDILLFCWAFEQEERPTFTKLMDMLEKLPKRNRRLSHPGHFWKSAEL
# How it was run: as §1
# PI4KA (PI4K alpha) = biological target: T9, PI4KA (PI4K alpha) (Homo sapiens, UniProt P42356)
# T9 construct: purchased Thermo Fisher Scientific
# T9 sequence (P42356 whole entry): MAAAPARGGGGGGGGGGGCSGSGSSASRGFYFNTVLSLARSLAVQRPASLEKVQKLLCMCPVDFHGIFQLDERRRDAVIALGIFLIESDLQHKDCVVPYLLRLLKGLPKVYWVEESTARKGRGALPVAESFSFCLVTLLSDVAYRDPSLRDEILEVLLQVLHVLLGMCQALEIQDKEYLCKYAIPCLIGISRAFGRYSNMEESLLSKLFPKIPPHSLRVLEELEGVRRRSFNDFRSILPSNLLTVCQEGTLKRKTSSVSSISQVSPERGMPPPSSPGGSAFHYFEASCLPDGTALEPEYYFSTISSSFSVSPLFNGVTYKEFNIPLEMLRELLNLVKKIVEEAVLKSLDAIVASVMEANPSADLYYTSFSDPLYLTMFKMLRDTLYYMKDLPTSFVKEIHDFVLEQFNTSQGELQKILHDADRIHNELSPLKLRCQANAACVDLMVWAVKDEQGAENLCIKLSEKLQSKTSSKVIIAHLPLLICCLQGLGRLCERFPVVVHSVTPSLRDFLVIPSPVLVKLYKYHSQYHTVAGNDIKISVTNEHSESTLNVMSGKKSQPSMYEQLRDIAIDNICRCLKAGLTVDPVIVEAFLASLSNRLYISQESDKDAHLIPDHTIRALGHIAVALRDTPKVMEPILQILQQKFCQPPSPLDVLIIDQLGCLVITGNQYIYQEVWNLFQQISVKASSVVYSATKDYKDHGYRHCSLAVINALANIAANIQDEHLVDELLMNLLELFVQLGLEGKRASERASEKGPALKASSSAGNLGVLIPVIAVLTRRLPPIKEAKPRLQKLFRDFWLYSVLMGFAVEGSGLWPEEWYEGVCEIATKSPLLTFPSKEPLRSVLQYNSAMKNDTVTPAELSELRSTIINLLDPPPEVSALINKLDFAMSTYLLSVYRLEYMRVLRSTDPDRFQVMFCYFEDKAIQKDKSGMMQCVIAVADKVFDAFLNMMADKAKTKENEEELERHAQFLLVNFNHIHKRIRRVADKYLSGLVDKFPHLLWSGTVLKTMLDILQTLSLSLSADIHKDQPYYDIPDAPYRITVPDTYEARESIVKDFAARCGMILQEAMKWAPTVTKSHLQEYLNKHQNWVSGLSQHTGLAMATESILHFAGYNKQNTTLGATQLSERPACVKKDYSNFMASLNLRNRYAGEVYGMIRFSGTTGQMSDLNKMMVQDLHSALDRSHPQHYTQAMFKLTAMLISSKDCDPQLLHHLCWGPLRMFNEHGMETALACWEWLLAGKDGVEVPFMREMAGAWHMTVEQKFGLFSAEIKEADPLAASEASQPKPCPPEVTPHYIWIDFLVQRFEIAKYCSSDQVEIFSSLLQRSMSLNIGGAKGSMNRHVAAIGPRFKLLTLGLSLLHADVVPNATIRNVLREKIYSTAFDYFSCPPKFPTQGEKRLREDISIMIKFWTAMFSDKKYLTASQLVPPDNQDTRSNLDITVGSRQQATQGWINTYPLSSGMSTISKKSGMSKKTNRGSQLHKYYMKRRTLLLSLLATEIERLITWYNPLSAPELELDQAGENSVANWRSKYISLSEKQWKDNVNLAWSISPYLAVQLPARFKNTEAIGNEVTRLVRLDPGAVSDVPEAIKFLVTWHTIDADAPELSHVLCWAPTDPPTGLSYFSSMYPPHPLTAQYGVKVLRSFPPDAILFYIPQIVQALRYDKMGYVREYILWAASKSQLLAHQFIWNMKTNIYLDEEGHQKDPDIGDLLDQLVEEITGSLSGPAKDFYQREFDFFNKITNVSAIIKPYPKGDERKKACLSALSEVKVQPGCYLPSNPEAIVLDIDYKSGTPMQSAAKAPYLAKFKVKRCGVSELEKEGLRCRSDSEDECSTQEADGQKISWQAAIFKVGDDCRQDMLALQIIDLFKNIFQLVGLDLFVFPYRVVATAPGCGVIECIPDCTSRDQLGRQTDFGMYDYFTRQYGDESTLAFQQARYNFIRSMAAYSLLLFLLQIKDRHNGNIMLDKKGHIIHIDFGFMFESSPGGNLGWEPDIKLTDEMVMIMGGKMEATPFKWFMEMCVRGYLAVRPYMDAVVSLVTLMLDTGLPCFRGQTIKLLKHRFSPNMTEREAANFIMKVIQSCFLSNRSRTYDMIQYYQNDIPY
# How it was run: as §1
# EGFR (ErbB1) G719S = biological target: T10, EGFR (ErbB1) G719S (Homo sapiens, UniProt P00533, G719S)
# T10 construct: purchased Thermo Fisher Scientific
# How it was run: as §1
# T1 sequence (P54646 whole entry): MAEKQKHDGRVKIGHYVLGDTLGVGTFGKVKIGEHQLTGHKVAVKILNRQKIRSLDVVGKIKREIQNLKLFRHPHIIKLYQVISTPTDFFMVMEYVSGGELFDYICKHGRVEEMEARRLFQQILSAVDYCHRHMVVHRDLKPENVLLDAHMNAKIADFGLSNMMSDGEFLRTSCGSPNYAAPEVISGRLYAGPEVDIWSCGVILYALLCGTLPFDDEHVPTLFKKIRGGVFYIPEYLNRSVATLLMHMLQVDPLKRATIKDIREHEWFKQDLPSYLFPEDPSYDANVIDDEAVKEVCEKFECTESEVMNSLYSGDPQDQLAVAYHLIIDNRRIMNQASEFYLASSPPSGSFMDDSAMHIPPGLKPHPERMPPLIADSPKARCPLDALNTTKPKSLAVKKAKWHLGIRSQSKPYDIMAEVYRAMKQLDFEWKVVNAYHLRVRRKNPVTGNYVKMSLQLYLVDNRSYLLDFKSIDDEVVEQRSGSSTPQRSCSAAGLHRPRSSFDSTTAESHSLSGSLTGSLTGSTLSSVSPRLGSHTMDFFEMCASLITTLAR
# T1 sequence (O43741 whole entry partner): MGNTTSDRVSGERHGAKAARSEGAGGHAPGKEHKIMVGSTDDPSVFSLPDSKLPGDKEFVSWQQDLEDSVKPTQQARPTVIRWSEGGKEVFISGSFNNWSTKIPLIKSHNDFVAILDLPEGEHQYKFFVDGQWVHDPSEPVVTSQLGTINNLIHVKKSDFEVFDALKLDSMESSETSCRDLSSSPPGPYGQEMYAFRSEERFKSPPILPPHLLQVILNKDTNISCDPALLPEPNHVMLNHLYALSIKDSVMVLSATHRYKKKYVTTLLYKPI
# T1 sequence (Q9UGI9 whole entry partner): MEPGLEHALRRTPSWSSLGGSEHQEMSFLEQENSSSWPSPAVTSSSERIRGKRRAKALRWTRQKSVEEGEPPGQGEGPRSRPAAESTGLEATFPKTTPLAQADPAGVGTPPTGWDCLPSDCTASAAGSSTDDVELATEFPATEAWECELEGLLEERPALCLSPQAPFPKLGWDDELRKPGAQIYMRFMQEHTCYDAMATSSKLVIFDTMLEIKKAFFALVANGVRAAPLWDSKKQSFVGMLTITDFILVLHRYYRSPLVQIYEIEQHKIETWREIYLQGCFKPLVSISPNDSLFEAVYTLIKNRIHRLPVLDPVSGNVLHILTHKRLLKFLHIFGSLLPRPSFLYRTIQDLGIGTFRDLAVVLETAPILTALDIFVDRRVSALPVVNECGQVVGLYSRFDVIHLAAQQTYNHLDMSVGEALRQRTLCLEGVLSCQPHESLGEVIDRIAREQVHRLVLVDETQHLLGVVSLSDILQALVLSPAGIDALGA
SMILES,inhibition at 1 µM (AMPK (A2/B2/G3)) [%],inhibition at 10 µM (AMPK (A2/B2/G3)) [%],inhibition at 1 µM (PIM1) [%],inhibition at 10 µM (PIM1) [%],inhibition at 1 µM (LRRK2 FL) [%],inhibition at 10 µM (LRRK2 FL) [%],inhibition at 1 µM (PLK2) [%],inhibition at 10 µM (PLK2) [%],inhibition at 1 µM (MAPK7 (ERK5)) [%],inhibition at 10 µM (MAPK7 (ERK5)) [%],inhibition at 1 µM (CDK4/cyclin D3) [%],inhibition at 10 µM (CDK4/cyclin D3) [%],inhibition at 1 µM (FGFR1) [%],inhibition at 10 µM (FGFR1) [%],inhibition at 1 µM (KSR2) [%],inhibition at 10 µM (KSR2) [%],inhibition at 1 µM (PI4KA (PI4K alpha)) [%],inhibition at 10 µM (PI4KA (PI4K alpha)) [%],inhibition at 1 µM (EGFR (ErbB1) G719S) [%],inhibition at 10 µM (EGFR (ErbB1) G719S) [%]
"COc1ccc2c(c1OC)c(=O)n1c3ccc(O)cc3c3ccnc2c31 [MW01, 5-Hydroxy-10,11-dimethoxy-9H-benzo[c]indolo[3,2,1-ij][1,5]naphthyridin-9-one]",8,18,11,24,85,90,-1,-2,9,1,-2,-6,6,5,5,8,13,23,5,14
"COc1ccc2cc3c(N)nn(C(=O)c4cccc(N(C)C)c4)c3nc2c1 [MW05, (3-Amino-7-methoxypyrazolo[3,4-b]quinolin-1-yl)-[3-(dimethylamino)phenyl]methanone]",4,-4,8,-9,-6,6,3,-2,2,-7,-6,-8,-1,-7,7,-2,1,-1,4,-5
